Laboratory results published in article PMC10099431 (ACS Omega, 2023).
Read-outs that look alike come from different tables or passages of the source.

Assays:
[1] = assay type: physicochemical; conditions: 298.15 K; for 100 δx1,3 (preferential solvation parameter of RST by PEG400) / D (derivative of the Gibbs energy of transfer) / G1,3 (Kirkwood–Buff integral, PEG400–RST) / G2,3 (Kirkwood–Buff integral, water–RST) / Vcor (correlation volume): 0.1 MPa
[2] = cited from earlier work
[3] = cited from earlier work; remark: listed apart in the source

100 δx1,3 (preferential solvation parameter of RST by PEG400) ([1]; x1 = 0.45): 1.64
D (derivative of the Gibbs energy of transfer) ([1]; x1 = 0.45): –5.48 kJ·mol^–1
G1,3 (Kirkwood–Buff integral, PEG400–RST) ([1]; x1 = 0.45): –325.4 cm^3·mol^–1
G2,3 (Kirkwood–Buff integral, water–RST) ([1]; x1 = 0.45): –568.4 cm^3·mol^–1
Vcor (correlation volume) ([1]; x1 = 0.45): 4133 cm^3·mol^–1
δx1,3, highest preferential solvation parameter of RST by PEG400 ([1]; x1 = 0.5): 1.65 × 10^–2
100 δx1,3 (preferential solvation parameter of RST by PEG400) ([1]; x1 = 0.50): 1.65
D (derivative of the Gibbs energy of transfer) ([1]; x1 = 0.50): –4.88 kJ·mol^–1
G1,3 (Kirkwood–Buff integral, PEG400–RST) ([1]; x1 = 0.50): –323.8 cm^3·mol^–1
G2,3 (Kirkwood–Buff integral, water–RST) ([1]; x1 = 0.50): –584.0 cm^3·mol^–1
Vcor (correlation volume) ([1]; x1 = 0.50): 4396 cm^3·mol^–1
100 δx1,3 (preferential solvation parameter of RST by PEG400) ([1]; x1 = 0.55): 1.64
D (derivative of the Gibbs energy of transfer) ([1]; x1 = 0.55): –4.36 kJ·mol^–1
G1,3 (Kirkwood–Buff integral, PEG400–RST) ([1]; x1 = 0.55): –322.8 cm^3·mol^–1
G2,3 (Kirkwood–Buff integral, water–RST) ([1]; x1 = 0.55): –601.8 cm^3·mol^–1
Vcor (correlation volume) ([1]; x1 = 0.55): 4652 cm^3·mol^–1
100 δx1,3 (preferential solvation parameter of RST by PEG400) ([1]; x1 = 0.60): 1.61
D (derivative of the Gibbs energy of transfer) ([1]; x1 = 0.60): –3.92 kJ·mol^–1
G1,3 (Kirkwood–Buff integral, PEG400–RST) ([1]; x1 = 0.60): –322.0 cm^3·mol^–1
G2,3 (Kirkwood–Buff integral, water–RST) ([1]; x1 = 0.60): –621.8 cm^3·mol^–1
Vcor (correlation volume) ([1]; x1 = 0.60): 4901 cm^3·mol^–1
100 δx1,3 (preferential solvation parameter of RST by PEG400) ([1]; x1 = 0.65): 1.55
D (derivative of the Gibbs energy of transfer) ([1]; x1 = 0.65): –3.54 kJ·mol^–1
G1,3 (Kirkwood–Buff integral, PEG400–RST) ([1]; x1 = 0.65): –321.5 cm^3·mol^–1
G2,3 (Kirkwood–Buff integral, water–RST) ([1]; x1 = 0.65): –643.4 cm^3·mol^–1
Vcor (correlation volume) ([1]; x1 = 0.65): 5144 cm^3·mol^–1
100 δx1,3 (preferential solvation parameter of RST by PEG400) ([1]; x1 = 0.70): 1.46
D (derivative of the Gibbs energy of transfer) ([1]; x1 = 0.70): –3.21 kJ·mol^–1
G1,3 (Kirkwood–Buff integral, PEG400–RST) ([1]; x1 = 0.70): –321.0 cm^3·mol^–1
G2,3 (Kirkwood–Buff integral, water–RST) ([1]; x1 = 0.70): –664.5 cm^3·mol^–1
Vcor (correlation volume) ([1]; x1 = 0.70): 5379 cm^3·mol^–1
100 δx1,3 (preferential solvation parameter of RST by PEG400) ([1]; x1 = 0.75): 1.31
D (derivative of the Gibbs energy of transfer) ([1]; x1 = 0.75): –2.92 kJ·mol^–1
G1,3 (Kirkwood–Buff integral, PEG400–RST) ([1]; x1 = 0.75): –320.4 cm^3·mol^–1
G2,3 (Kirkwood–Buff integral, water–RST) ([1]; x1 = 0.75): –682.1 cm^3·mol^–1
Vcor (correlation volume) ([1]; x1 = 0.75): 5607 cm^3·mol^–1
100 δx1,3 (preferential solvation parameter of RST by PEG400) ([1]; x1 = 0.80): 1.09
D (derivative of the Gibbs energy of transfer) ([1]; x1 = 0.80): –2.67 kJ·mol^–1
G1,3 (Kirkwood–Buff integral, PEG400–RST) ([1]; x1 = 0.80): –319.6 cm^3·mol^–1
G2,3 (Kirkwood–Buff integral, water–RST) ([1]; x1 = 0.80): –691.4 cm^3·mol^–1
Vcor (correlation volume) ([1]; x1 = 0.80): 5827 cm^3·mol^–1
100 δx1,3 (preferential solvation parameter of RST by PEG400) ([1]; x1 = 0.85): 0.83
D (derivative of the Gibbs energy of transfer) ([1]; x1 = 0.85): –2.45 kJ·mol^–1
G1,3 (Kirkwood–Buff integral, PEG400–RST) ([1]; x1 = 0.85): –318.5 cm^3·mol^–1
G2,3 (Kirkwood–Buff integral, water–RST) ([1]; x1 = 0.85): –687.6 cm^3·mol^–1
Vcor (correlation volume) ([1]; x1 = 0.85): 6039 cm^3·mol^–1
100 δx1,3 (preferential solvation parameter of RST by PEG400) ([1]; x1 = 0.90): 0.54
D (derivative of the Gibbs energy of transfer) ([1]; x1 = 0.90): –2.26 kJ·mol^–1
G1,3 (Kirkwood–Buff integral, PEG400–RST) ([1]; x1 = 0.90): –317.0 cm^3·mol^–1
G2,3 (Kirkwood–Buff integral, water–RST) ([1]; x1 = 0.90): –668.0 cm^3·mol^–1
Vcor (correlation volume) ([1]; x1 = 0.90): 6246 cm^3·mol^–1
100 δx1,3 (preferential solvation parameter of RST by PEG400) ([1]; x1 = 0.95): 0.25
D (derivative of the Gibbs energy of transfer) ([1]; x1 = 0.95): –2.08 kJ·mol^–1
G1,3 (Kirkwood–Buff integral, PEG400–RST) ([1]; x1 = 0.95): –315.3 cm^3·mol^–1
G2,3 (Kirkwood–Buff integral, water–RST) ([1]; x1 = 0.95): –633.9 cm^3·mol^–1
Vcor (correlation volume) ([1]; x1 = 0.95): 6447 cm^3·mol^–1
100 δx1,3 (preferential solvation parameter of RST by PEG400) ([1]; x1 = 1.00): 0.00
D (derivative of the Gibbs energy of transfer) ([1]; x1 = 1.00): –1.93 kJ·mol^–1
G1,3 (Kirkwood–Buff integral, PEG400–RST) ([1]; x1 = 1.00): –313.7 cm^3·mol^–1
G2,3 (Kirkwood–Buff integral, water–RST) ([1]; x1 = 1.00): –590.9 cm^3·mol^–1
Vcor (correlation volume) ([1]; x1 = 1.00): 6645 cm^3·mol^–1
Structure (SMILES): CC(C)c1nc(N(C)S(C)(=O)=O)nc(-c2ccc(F)cc2)c1/C=C/[C@@H](O)C[C@@H](O)CC(=O)[O-].CC(C)c1nc(N(C)S(C)(=O)=O)nc(-c2ccc(F)cc2)c1/C=C/[C@@H](O)C[C@@H](O)CC(=O)[O-].[Ca+2] [RST, (E)-7-[4-(4-fluorophenyl)-6-isopropyl-2-[methyl(methylsulfonyl)amino]pyrimidin-5-yl]-(3R,5S)-3,5-dihydroxyhept-6-enoic acid, calcium salt (2:1)]
pKa ([2]; GastroPlus input parameter (Table 5)): 4
hydrogen-bonding acceptor counts ([2]; GastroPlus input parameter): 10
hydrogen-bonding donor counts ([2]; GastroPlus input parameter): 3
maximum solubility in PEG400 ([2]; PEG400): 65.7 mg/g
aqueous solubility ([2]; as reported in NLM PubChem): 8.86 × 10^–2 g/L
solubility (mg/mL) in water at 25 (°C) ([2]; water, 25 °C, GastroPlus input parameter): 0.33 mg/mL
elimination half-life ([3]; GastroPlus input parameter): 19 h
total clearance ([3]; GastroPlus input parameter): 0.455 L/h
volume of distribution ([3]; GastroPlus input parameter): 2.23 L/kg
oral bioavailability ([3]; reported): ~20%
